Laboratory results taken from patent US4731383A, “Aminoguanidine compounds, their compositions and pharmaceutical uses” (Biogal Gyogyszergyar, priority 1983, dated 1988).
Where a name gives a salt, the structure may show the parent alone. Read-outs that look alike come from different tables or passages of the source.

Tests used:
[1] = tested on: mice treated with aconitin; assay: animal or person; assay type: in vivo; settings: Mus musculus, read-out: Delay in the appearance time of arrhythmia
Procedure: Arrhytmia was induced in male mice, weighing 20 to 25 g, by treating them continuously, at a rate of 0.2 ml/min with an infusion containing 5 μg/kg of aconitin. The test compound was administered to the animals either intraperitoneally (by injecting it into the abdominal cavity) 15 minutes before the start of the infusion, or orally 60 minutes before the onset of the infusion. The time of the appearance of arrhythmia was recorded, and the percentage of delay was calculated in relation to the data obtained in the controls, pretreated with 0.9 percent sodium chloride solution only [B. Vargaftig and J. L. Coignet: European J. of Pharmacol. 6, 49 to 55 (1969); N. K. Dadkar and B. K. Bhattachariya: Arch. Int. Pharmacodyn. 212, 297 to 301 (1974); D. U. Nwagwu, T. L. Holcslaw and S. J. Stohs: Arch. Int. Pharmacodyn. 229, 219 to 226 (1977)].

[2] = in vivo; settings: mouse
[3] = tested on: anaesthesized cats, fibrillation threshold of the heart; assay: Determination of the fibrillation threshold in anaesthetized cats; assay type: in vivo; settings: cat
From the text: The chests of the cats were opened under chloralose-urethane anaesthesia, a bipolar stimulating electrode was fixed onto the heart, and the heart was stimulated electrically with a frequency of 20 Hz, under continuously increasing current strength, until a fibrillo-flattern could be observed. This current strength was considered as the fibrillation threshold of the animal.

[4] = tested on: right ventricle of isolated rabbit heart; assay: Electrophysiological tests in the isolated rabbit heart, right ventricle; settings: 2.0 mg/l, n = 4
Procedure: (§1) Hearts of rabbits of both sexes, weighing 1 to 2 kg, were removed, the right and left auricles and a segment of the right ventricle were prepared and placed into a vessel filled with nutrient solution. Bipolar platinum electrodes (a stimulating electrode and a lead electrode) were placed on the organ strips, and the electric stimulus threshold and the speed of impulse conduction were measured. The effective refractory period was determined on the basis of the maximal driving frequency.

[5] = tested on: left auricle of isolated rabbit heart; assay: Electrophysiological tests in the isolated rabbit heart, left auricle; settings: 2.0 mg/l, n = 4
Procedure: as §1

[6] = 2.0 mg/kg i.v., 2 min following treatment
[7] = 2.0 mg/kg i.v., 10 min following treatment
[8] = 2.0 mg/kg i.v., 20 min following treatment
[9] = 4.0 mg/kg i.v., 2 min following treatment
[10] = 4.0 mg/kg i.v., 10 min following treatment
[11] = 4.0 mg/kg i.v., 20 min following treatment
[12] = 20 mg/kg i.d., 10 minutes following treatment
[13] = 20 mg/kg i.d., 20 minutes following treatment
[14] = 20 mg/kg i.d., 30 minutes following treatment
[15] = 20 mg/kg i.d., 40 minutes following treatment
[16] = 20 mg/kg i.d., 50 minutes following treatment
[17] = 20 mg/kg i.d., 60 minutes following treatment
[18] = 20 mg/kg i.d., 70 minutes following treatment
[19] = 20 mg/kg i.d., 80 minutes following treatment
[20] = 20 mg/kg i.d., 90 minutes following treatment
[21] = 20 mg/kg i.d., 100 minutes following treatment

CN(C)C(=N)NNc1c(Cl)cccc1Cl [Example 2, 1-(2,6-Dichlorophenyl)-4,4-dimethyl-aminoguanidine]
change in vivo at 25 mg/kg ([1]; ip): 79% | change in vivo at 50 mg/kg ([1]; ip): 156% | change in vivo at 25 mg/kg ([1]; po): 39% | change in vivo at 50 mg/kg ([1]; po): 71% | change in vivo at 100 mg/kg ([1]; po): 150% | LD50 ([2]; ip): 73 mg/kg | LD50 ([2]; po): 220 mg/kg

CCN(CC)C(=N)NNc1ccccc1Cl [Example 3, 1-(2-Chlorophenyl)-4,4-diethyl-aminoguanidine hydrochloride]
change in vivo at 10 mg/kg ([1]; ip): 108% | change in vivo at 20 mg/kg ([1]; ip): 68%

CCN(CC)C(=N)NNc1ccccc1C [Example 4, 1-(2-Methyl-phenyl)-4,4-diethyl-aminoguanidine hydrochloride]
change in vivo at 5 mg/kg ([1]; ip): 28% | change in vivo at 10 mg/kg ([1]; ip): 77%

Cc1cccc(C)c1NNC(=N)N(C)C [Example 5]
change in vivo at 25 mg/kg ([1]; ip): 113% | change in vivo at 50 mg/kg ([1]; ip): 155% | change in vivo at 100 mg/kg ([1]; po): 111% | Percentual change in the fibrillation threshold ([3]; 0.5 mg/kg i.v., 2 min following treatment): +18.75% | Percentual change in the fibrillation threshold ([3]; 0.5 mg/kg i.v., 10 min following treatment): +40.75% | Percentual change in the fibrillation threshold ([3]; 0.5 mg/kg i.v., 20 min following treatment): +37.6% | Percentual change in the fibrillation threshold ([3]; 1.0 mg/kg i.v., 2 min following treatment): +35.2% | Percentual change in the fibrillation threshold ([3]; 1.0 mg/kg i.v., 10 min following treatment): +55.2% | Percentual change in the fibrillation threshold ([3]; 1.0 mg/kg i.v., 20 min following treatment): +48.4% | Percentual change in the fibrillation threshold [3, 6]: +101.1% | Percentual change in the fibrillation threshold [3, 7]: +93.0% | Percentual change in the fibrillation threshold [3, 8]: +94.15% | Percentual change in the fibrillation threshold [3, 9]: +153.3% | Percentual change in the fibrillation threshold [3, 10]: +125.65% | Percentual change in the fibrillation threshold [3, 11]: +124.0% | Percentual change in the fibrillation threshold ([3]; 8.0 mg/kg i.v., 2 min following treatment): +392.8% | Percentual change in the fibrillation threshold ([3]; 8.0 mg/kg i.v., 10 min following treatment): +354.5% | Percentual change in the fibrillation threshold ([3]; 8.0 mg/kg i.v., 20 min following treatment): +310.25% | Percentual change in the fibrillation threshold [3, 12]: +22.2% | Percentual change in the fibrillation threshold [3, 13]: +29.0% | Percentual change in the fibrillation threshold [3, 14]: +94.0% | Percentual change in the fibrillation threshold [3, 15]: +103.7% | Percentual change in the fibrillation threshold [3, 16]: +100.4% | Percentual change in the fibrillation threshold [3, 17]: +105.8% | Percentual change in the fibrillation threshold [3, 18]: +100.3% | Percentual change in the fibrillation threshold [3, 19]: +121.5% | Percentual change in the fibrillation threshold [3, 20]: +132.8% | Percentual change in the fibrillation threshold [3, 21]: +132.3% | LD50 ([2]; ip): 130 mg/kg | LD50 ([2]; po): 400 mg/kg

CN(C)C(=N)NNc1ccccc1Cl [Example 6]
change in vivo at 50 mg/kg ([1]; ip): 114% | change in vivo at 100 mg/kg ([1]; po): 70%

Cc1ccccc1NNC(=N)N1CCCC1 [Example 7]
change in vivo at 25 mg/kg ([1]; ip): 50% | change in vivo at 50 mg/kg ([1]; ip): 128% | change in vivo at 50 mg/kg ([1]; po): 54% | change in vivo at 100 mg/kg ([1]; po): 137%

CC1CCCCN1C(=N)NNc1ccccc1Cl (stereo not drawn) [Example 8]
change in vivo at 5 mg/kg ([1]; ip): 32% | change in vivo at 10 mg/kg ([1]; ip): 110%

CN(C)C(=N)NNc1cccc(Cl)c1 [Example 9]
change in vivo at 50 mg/kg ([1]; ip): 171%

Cc1cccc(C)c1NNC(=N)N1CCCC1 [Example 11]
Percentual change in the fibrillation threshold [3, 6]: +130.6% | Percentual change in the fibrillation threshold [3, 7]: +149.0% | Percentual change in the fibrillation threshold [3, 8]: +163.3% | Percentual change in the fibrillation threshold [3, 9]: +176.0% | Percentual change in the fibrillation threshold [3, 10]: +328.0% | Percentual change in the fibrillation threshold [3, 11]: +316.0% | Percentual change in the fibrillation threshold [3, 12]: +5.8% | Percentual change in the fibrillation threshold [3, 13]: +22.0% | Percentual change in the fibrillation threshold [3, 14]: +43.8% | Percentual change in the fibrillation threshold [3, 15]: +79.6% | Percentual change in the fibrillation threshold [3, 16]: +115% | Percentual change in the fibrillation threshold [3, 17]: +118% | Percentual change in the fibrillation threshold [3, 18]: +141% | Percentual change in the fibrillation threshold [3, 19]: +198% | Percentual change in the fibrillation threshold [3, 20]: +209.5% | Percentual change in the fibrillation threshold [3, 21]: +272.5%

CN(C)C(=N)NNc1ccccc1 [Example 18]
change in vivo at 100 mg/kg ([1]; po): 74%

CCc1cccc(C)c1NNC(=N)N(C)C [Example 21]
change in vivo at 25 mg/kg ([1]; ip): 110% | change in vivo at 50 mg/kg ([1]; ip): 86%

Cc1ccccc1NNC(=N)N1CCOCC1 [Example 22]
change in vivo at 50 mg/kg ([1]; ip): 100%

Cc1cccc(C)c1OCC(C)N.Cl (stereo not drawn) [Mexiletin, 1-(2,6-Dimethylphenoxy)-2-aminopropane hydrochloride, reference compound]
Change in conduction time [4]: +11% | Change in electric stimulus threshold [4]: +6% | Change in max. driving frequency [4]: -28% | change in vivo at 5 mg/kg ([1]; ip): 3.5% | change in vivo at 10 mg/kg ([1]; ip): 7.7% | change in vivo at 25 mg/kg ([1]; ip): 33% | change in vivo at 50 mg/kg ([1]; ip): 83% | change in vivo at 75 mg/kg ([1]; ip): 162% | change in vivo at 100 mg/kg ([1]; po): 93% | Change in conduction time [5]: +24% | Change in electric stimulus threshold [5]: 36% | Change in max. driving frequency [5]: -32% | Percentual change in the fibrillation threshold ([3]; 10.0 mg/kg i.v., 10 min following treatment): +161.2% | Percentual change in the fibrillation threshold ([3]; 10.0 mg/kg i.v., 20 min following treatment): +92.0%

C=C[C@H]1C[N@@]2CC[C@H]1C[C@@H]2[C@@H](O)c1ccnc2ccc(OC)cc12 [Quinidine, quinidine, reference compound]
Percentual change in the fibrillation threshold ([3]; 10 mg/kg i.d., 10 minutes following treatment): +0.4% | Percentual change in the fibrillation threshold ([3]; 10 mg/kg i.d., 20 minutes following treatment): +26.7% | Percentual change in the fibrillation threshold ([3]; 10 mg/kg i.d., 30 minutes following treatment): +58.5% | Percentual change in the fibrillation threshold ([3]; 10 mg/kg i.d., 40 minutes following treatment): +48.5% | Percentual change in the fibrillation threshold ([3]; 10 mg/kg i.d., 50 minutes following treatment): +32.1% | Percentual change in the fibrillation threshold ([3]; 10 mg/kg i.d., 70 minutes following treatment): +9.5% | Percentual change in the fibrillation threshold ([3]; 10 mg/kg i.d., 80 minutes following treatment): +8.8% | Percentual change in the fibrillation threshold ([3]; 10 mg/kg i.d., 90 minutes following treatment): +3.8% | Percentual change in the fibrillation threshold ([3]; 10 mg/kg i.d., 100 minutes following treatment): 0.0%
